The source of these data is patent publication US10722501B2 (BAYER AKTIENGESELLSCHAFT, priority 2016, dated 2020).

The structures appear in SMILES notation.

Usually IC50 stands for the concentration needed to halve the response being measured.

For the experiment, the target named is T1, recombinant full-length human prolyl endopeptidase (PREP) (Homo sapiens, UniProt P48147).
T1 construct: To recombinant full-length human prolyl endopeptidase (PREP, R&D-Systems, 4308-SE); purchased R&D-Systems 4308-SE
T1 sequence (P48147 1-710): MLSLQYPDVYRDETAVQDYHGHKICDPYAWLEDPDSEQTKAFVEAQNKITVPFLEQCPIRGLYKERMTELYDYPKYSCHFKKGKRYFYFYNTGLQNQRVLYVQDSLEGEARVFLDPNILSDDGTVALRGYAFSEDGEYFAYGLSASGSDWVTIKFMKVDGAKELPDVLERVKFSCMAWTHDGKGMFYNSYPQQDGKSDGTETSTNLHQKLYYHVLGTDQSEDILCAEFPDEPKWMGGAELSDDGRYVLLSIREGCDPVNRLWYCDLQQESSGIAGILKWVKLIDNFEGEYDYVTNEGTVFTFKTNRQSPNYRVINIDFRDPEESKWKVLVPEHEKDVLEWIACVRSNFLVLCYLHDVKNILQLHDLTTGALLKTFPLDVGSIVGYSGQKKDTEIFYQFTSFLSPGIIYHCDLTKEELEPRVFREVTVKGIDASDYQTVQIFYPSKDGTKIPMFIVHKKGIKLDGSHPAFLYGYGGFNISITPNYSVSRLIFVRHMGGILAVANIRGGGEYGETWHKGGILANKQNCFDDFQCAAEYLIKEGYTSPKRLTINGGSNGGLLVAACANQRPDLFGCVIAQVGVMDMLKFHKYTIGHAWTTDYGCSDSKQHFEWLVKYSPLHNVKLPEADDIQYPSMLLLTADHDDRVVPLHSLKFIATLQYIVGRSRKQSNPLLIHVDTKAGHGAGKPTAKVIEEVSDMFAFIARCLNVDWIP
The experiment is described as follows: Biochemical human prolyl endopeptidase (PREP) assay with fluorescently labelled substrate. The note with it: substrate Z-Gly-Pro-AMC 50 μM, 32° C., 60 min; some as mean values from multiple independent determinations. On the procedure: B-1 Biochemical Human Prolyl Endopeptidase (PREP) Assay for Identification of Inhibitors of PREP Activity Using a Fluorescently Labelled Substrate Principle of the Assay:
The enzymatic conversion of the fluorescent peptide substrate was observed on the basis of the measurement of the fluorescence intensity. The enzyme activity was determined by the ascertaining of the initial slope in the increase in fluorescence. Compounds that inhibit PREP were identified on the basis of the decrease in the initial slope compared to a reaction mixture without test compound.
Determination of Activity:
IC50 values were determined by the plotting of the percentage PREP activity against the concentration of the test substance by interpolation.
To recombinant full-length human prolyl endopeptidase (PREP, R&D-Systems, 4308-SE; final concentration, for example, 0.4 nM, volume: 25 μl) in reaction buffer (50 mM Tris-HCl, pH 7.5; 150 mM NaCl; 0.13% BSA, 5 mM EDTA, 3 mM GSH, 0.005% Brij-35) was added a test compound (in DMSO, in an appropriate final concentration range from 1 nM to 30 μM, volume: 1 μl) in a well of a 384-well microtitre plate. The reaction was initiated by adding the substrate Z-Gly-Pro-AMC (final concentration 50 μM; Z=carboxybenzyl; AMC=7-amino-4-methylcoumarin, volume: 25 μl). The progress of the PREP reaction was observed by measuring the fluorescence intensity in a Tecan SAFIRE II plate spectrophotometer at 32° C. over a period of 60 min (excitation wavelength: 360 nm, emission wavelength: 465 nm).
Table B-1 below collates the IC50 values thus obtained from the human prolyl endopeptidase assay for individual working examples of the invention (some as mean values from multiple independent individual determinations).
For `COc1ccc(Cn2nc3n(c2=O)C(C(=O)N2CCCC2)CCC3)cc1` (racemic) [Example 36, (5RS)-2-(4-Methoxybenzyl)-5-(pyrrolidin-1-ylcarbonyl)-5,6,7,8-tetrahydro[1,2,4]triazolo[4,3-a]pyridin-3(2H)-one], the half-maximal inhibitory concentration (IC50) came to 3.65 nM.

For `O=C(C1CCCc2nn(Cc3ccc(Cl)c(C(F)(F)F)c3)c(=O)n21)N1CCCC1` (racemic) [Example 37], the concentration for half-maximal inhibition (IC50) was 0.83 nM.

In the case of `O=C(C1CCCc2nn(Cc3cccc(Cl)c3)c(=O)n21)N1CCCC1` (racemic) [Example 38, (5RS)-2-(3-Chlorobenzyl)-5-(pyrrolidin-1-ylcarbonyl)-5,6,7,8-tetrahydro[1,2,4]triazolo[4,3-a]pyridin-3(2H)-one], the half-inhibitory concentration (IC50) was 1 nM.

Take `O=C(C1CCCc2nn(Cc3ccc(Cl)c(Cl)c3)c(=O)n21)N1CCCC1` (racemic) [Example 39, (5RS)-2-(3,4-Dichlorobenzyl)-5-(pyrrolidin-1-ylcarbonyl)-5,6,7,8-tetrahydro[1,2,4]triazolo[4,3-a]pyridin-3(2H)-one]: the IC50 turned out to be 0.55 nM.

As for `O=C(C1CCCc2nn(CC3CCC(C(F)(F)F)CC3)c(=O)n21)N1CCCC1` (racemic) [Example 40, (5RS)-5-(Pyrrolidin-1-ylcarbonyl)-2-{[4-(trifluoromethyl)cyclohexyl]methyl}-5,6,7,8-tetrahydro[1,2,4]triazolo[4,3-a]pyridin-3(2H)-one], the IC50 is 5.2 nM.

On to `O=C(C1CCCc2nn(CC3CCC(F)(F)CC3)c(=O)n21)N1CCCC1` (racemic) [Example 41, (5RS)-2-[(4,4-Difluorocyclohexyl)methyl]-5-(pyrrolidin-1-ylcarbonyl)-5,6,7,8-tetrahydro[1,2,4]triazolo[4,3-a]pyridin-3(2H)-one], for which the concentration for half-maximal inhibition (IC50) was found to be 13 nM.

`Cc1ccc(Cn2nc3n(c2=O)C(C(=O)N2CCC(F)(F)C2)CCC3)cc1` (racemic) [Example 42, (5RS)-5-[(3,3-Difluoropyrrolidin-1-yl)carbonyl]-2-(4-methylbenzyl)-5,6,7,8-tetrahydro[1,2,4]triazolo[4,3-a]pyridin-3(2H)-one]: the IC50 came out at 1.45 nM.

With `O=C(C1CCCc2nn(Cc3ccc(Cl)c(C(F)(F)F)c3)c(=O)n21)N1CCC(F)(F)C1` (racemic) [Example 43], the IC50 was determined as 1.9 nM.

With `O=C(C1CCCc2nn(Cc3cccc(Cl)c3)c(=O)n21)N1CCC(F)(F)C1` (racemic) [Example 44, (5RS)-2-(3-Chlorobenzyl)-5-[(3,3-difluoropyrrolidin-1-yl)carbonyl]-5,6,7,8-tetrahydro[1,2,4]triazolo[4,3-a]pyridin-3(2H)-one], the half-maximal inhibitory concentration (IC50) stood at 2.1 nM.

Consider `O=C(C1CCCc2nn(Cc3ccc(Cl)c(Cl)c3)c(=O)n21)N1CCC(F)(F)C1` (racemic) [Example 45, (5RS)-2-(3,4-Dichlorobenzyl)-5-[(3,3-difluoropyrrolidin-1-yl)carbonyl]-5,6,7,8-tetrahydro[1,2,4]triazolo[4,3-a]pyridin-3(2H)-one], for which the IC50 turned out to be 1.6 nM.

For `COc1ccc(Cn2nc3n(c2=O)C(C(=O)N2CCCC2)CCC3)cc1Cl` (racemic) [Example 46, (5RS)-2-(3-Chloro-4-methoxybenzyl)-5-(pyrrolidin-1-ylcarbonyl)-5,6,7,8-tetrahydro[1,2,4]triazolo[4,3-a]pyridin-3(2H)-one], the IC50 was found to be 0.95 nM.

Consider `O=C(C1CCCc2nn(Cc3cccc(C(F)(F)F)c3)c(=O)n21)N1CCC(F)(F)C1` (racemic) [Example 47, (5RS)-5-[(3,3-Difluoropyrrolidin-1-yl)carbonyl]-2-[3-(trifluoromethyl)benzyl]-5,6,7,8-tetrahydro[1,2,4]triazolo[4,3-a]pyridin-3(2H)-one], for which the half-maximal inhibitory concentration (IC50) amounted to 1.6 nM.

With `COc1cccc(Cn2nc3n(c2=O)C(C(=O)N2CCC(F)(F)C2)CCC3)c1` (racemic) [Example 48, (5RS)-5-[(3,3-Difluoropyrrolidin-1-yl)carbonyl]-2-(3-methoxybenzyl)-5,6,7,8-tetrahydro[1,2,4]triazolo[4,3-a]pyridin-3(2H)-one], the IC50 came out at 5 nM.

Take `COc1ccc(Cn2nc3n(c2=O)C(C(=O)N2CCC(F)(F)C2)CCC3)cc1Cl` (racemic) [Example 49, (5RS)-2-(3-Chloro-4-methoxybenzyl)-5-[(3,3-difluoropyrrolidin-1-yl)carbonyl]-5,6,7,8-tetrahydro[1,2,4]triazolo[4,3-a]pyridin-3(2H)-one]: the IC50 amounted to 1.75 nM.

`O=C(C1CCCc2nn(Cc3ccc(Cl)s3)c(=O)n21)N1CCCC1` (racemic) [Example 53, (5RS)-2-[(5-Chloro-2-thienyl)methyl]-5-(pyrrolidin-1-ylcarbonyl)-5,6,7,8-tetrahydro[1,2,4]triazolo[4,3-a]pyridin-3(2H)-one]: the half-inhibitory concentration (IC50) was 0.71 nM.

In the case of `O=C(C1CCCc2nn(Cc3ccc(Cl)s3)c(=O)n21)N1CCC(F)(F)C1` (racemic) [Example 54, (5RS)-2-[(5-Chloro-2-thienyl)methyl]-5-[(3,3-difluoropyrrolidin-1-yl)carbonyl]-5,6,7,8-tetrahydro[1,2,4]triazolo[4,3-a]pyridin-3(2H)-one], the IC50 amounted to 1.3 nM.

For the compound `O=C(C1CCCc2nn(Cc3cccc(F)c3)c(=O)n21)N1CCC(F)(F)C1` (racemic) [Example 56, (5RS)-5-[(3,3-Difluoropyrrolidin-1-yl)carbonyl]-2-(3-fluorobenzyl)-5,6,7,8-tetrahydro[1,2,4]triazolo[4,3-a]pyridin-3(2H)-one], the IC50 was determined as 5.6 nM.

As to `Cc1ccc(CCn2nc3n(c2=O)C(C(=O)N2CCCC2)CCC3)cc1` (racemic) [Example 57, (5RS)-2-[2-(4-Methylphenyl)ethyl]-5-(pyrrolidin-1-ylcarbonyl)-5,6,7,8-tetrahydro[1,2,4]triazolo[4,3-a]pyridin-3(2H)-one], the concentration for half-maximal inhibition (IC50) stood at 4.1 nM.

With `Cc1ccccc1Cn1nc2n(c1=O)C(C(=O)N1CCCC1)CCC2` (racemic) [Example 58, (5RS)-2-(2-Methylbenzyl)-5-(pyrrolidin-1-ylcarbonyl)-5,6,7,8-tetrahydro[1,2,4]triazolo[4,3-a]pyridin-3(2H)-one], the concentration for half-maximal inhibition (IC50) was 4 nM.

Turning to `O=C(C1CCCc2nn(Cc3ccnc(Cl)c3)c(=O)n21)N1CCCC1` (racemic) [Example 59, (5RS)-2-[(2-Chloropyridin-4-yl)methyl]-5-(pyrrolidin-1-ylcarbonyl)-5,6,7,8-tetrahydro[1,2,4]triazolo[4,3-a]pyridin-3(2H)-one], the concentration for half-maximal inhibition (IC50) was 12.2 nM.

In the case of `Cc1nonc1Cn1nc2n(c1=O)C(C(=O)N1CCCC1)CCC2` (racemic) [Example 60, (5RS)-2-[(4-Methyl-1,2,5-oxadiazol-3-yl)methyl]-5-(pyrrolidin-1-ylcarbonyl)-5,6,7,8-tetrahydro[1,2,4]triazolo[4,3-a]pyridin-3(2H)-one], the IC50 was found to be 18.5 nM.

For `Cc1cc(Cn2nc3n(c2=O)C(C(=O)N2CCCC2)CCC3)no1` (racemic) [Example 61, (5RS)-2-[(5-Methyl-1,2-oxazol-3-yl)methyl]-5-(pyrrolidin-1-ylcarbonyl)-5,6,7,8-tetrahydro[1,2,4]triazolo[4,3-a]pyridin-3(2H)-one], the IC50 came out at 16 nM.

Turning to `Cn1c(Cn2nc3n(c2=O)C(C(=O)N2CCCC2)CCC3)nc2ccccc21` (racemic) [Example 62, (5RS)-2-[(1-Methyl-1H-benzimidazol-2-yl)methyl]-5-(pyrrolidin-1-ylcarbonyl)-5,6,7,8-tetrahydro[1,2,4]triazolo[4,3-a]pyridin-3(2H)-one], the 50% inhibitory concentration (IC50) was found to be 2 nM.

For `COc1ccc(Cn2nc3n(c2=O)C(C(=O)N2CCCC2)CCC3)cc1C(F)(F)F` (racemic) [Example 63], the IC50 was determined as 0.74 nM.

`Cn1ncc2cc(Cn3nc4n(c3=O)C(C(=O)N3CCCC3)CCC4)ccc21` (racemic) [Example 64, (5RS)-2-[(1-Methyl-1H-indazol-5-yl)methyl]-5-(pyrrolidin-1-ylcarbonyl)-5,6,7,8-tetrahydro[1,2,4]triazolo[4,3-a]pyridin-3(2H)-one]: the IC50 was found to be 0.94 nM.
